{"source": "patent US9493836B2", "about": "“Method for diagnosing hematological disorders” (UNIVERSITE FRANCOIS RABELAIS DE TOURS, priority 2010, dated 2016)", "key": {"AML sample": {"tested_on": "AML sample", "assay": "In vitro treatment of an AML sample with a demethylating agent; expression level of genes SEQ ID NO: 1-24 by qRT-PCR (oxydogram)", "type": "cell-based, human", "details": "AML sample of one patient treated in vitro, compared with same untreated AML sample (FIG. 8)", "description": "Three micrograms of total RNA from each sample were reverse transcribed using the SuperScript® VILO™ cDNA Synthesis kit (Invitrogen) according to the protocol of the supplier. The relative quantification of gene expression was done by real-time PCR on the LightCycler® 480 microwell plate-based cycler platform (Roche Applied Science) using Universal ProbeLibrary assays designed with the ProbeFinder software (Roche Applied Science, www.roche-applied-science.com/sis/rtper/upl/ezhome.html). Primers were purchased from Invitrogen and Universal ProbeLibrary probes from Roche Applied Science. The nucleotide sequences of the primers and probes of each target are shown in Table A. All targets were concomitantly analyzed. qRT-PCR reactions were carried out in a total volume of 10 μL on 20 ng of cDNA using LightCycler® 480 Probes Master (Roche Applied Science). The LightCycler® 480 was programmed to an initial denaturation (95° C., 10 min) following by 45 cycles of 10 sec at 95° C., 30 sec at 60° C., 1 sec at 72° C. and a final cooling step at 40° C. for 10 sec. All reactions were run in triplicate, and average values were used for quantification. Results were analyzed by the relative quantification method (ΔΔCT=ΔCTpatient−ΔCTreference) using the Cycle threshold (CT) values determined with the LightCycler® 480 software (release 1.5.0) from Roche Applied Science. […]"}, "AML and high grade MDS": {"tested_on": "AML and high grade MDS", "details": "background statement; cited from earlier work"}}, "note": "Entries after “also recorded” stand apart in the source; their conditions may differ."}
{"smiles": "Nc1ncn([C@@H]2O[C@H](CO)[C@@H](O)[C@H]2O)c(=O)n1", "note": "[azacytidine, 5-azacytidine]", "values": [{"measurement": "modulation of the expression level (ratio) of the genes SEQ ID NO: 1-24", "setting": "AML sample", "value": "can modulate the expression ratio of the genes SEQ ID NO: 1-24; also recorded: modify the expression level of the genes"}, {"measurement": "share of AML and high grade MDS sensitive to the agents' effects", "setting": "AML and high grade MDS", "value": "about 30%"}]}
{"smiles": "Nc1ncn([C@H]2C[C@H](O)[C@@H](CO)O2)c(=O)n1", "note": "[decitabine, 5-azadeoxycytidine]", "values": [{"measurement": "share of AML and high grade MDS sensitive to the agents' effects", "setting": "AML and high grade MDS", "value": "about 30%"}]}
